# Data as given in patent publication US20150086530A1, “DOSING REGIMENS FOR THE TREATMENT OF POMPE DISEASE” (Amicus Therapeutics, Inc., priority 2012, published 2015).
# Legend:
# [1] = molecular target: T1, GAA (Homo sapiens, UniProt P10253); assay: Total rhGAA protein in plasma by Western blot in Pompe patients; assay type: in vivo; parameters: purchased Genzyme Corporation; conditions: Cohorts 1 and 2; 50 mg and 100 mg AT2220
# Experimental: Concentrations of 1-deoxynojirimycin hydrochloride in blood samples will be measured in plasma using a validated LC-MS/MS assay. GAA activity in plasma will be determined by a validated assay measuring enzyme activity using 4-MUG, with and without Con A. GAA protein levels will be measured by Western blotting using anti-human GAA antibody.
# The study was conducted essentially according to the methods described in Example 1. Cohort 1 comprised 4 subjects. Cohort 2 comprised 6 subjects. Each subject received alglucosidase alfa alone as an intravenous infusion in Period 1 and a single 50 mg dose (Cohort 1) or 100 mg (Cohort 2) of 1-deoxynojirimycin hydrochloride one hour before initiation of an intravenous infusion of alglucosidase alfa in Period 2. The genotype, including nucleotide and amino acid changes, for each subject (where available) is shown below: […]
# [2] = molecular target: T1, GAA; assay: GAA enzyme activity in muscle biopsies (Day 3 or 7) of Pompe patients; assay type: in vivo; parameters: tissue Genzyme Corporation; host or cells: skeletal muscle biopsies and WBC (PBMC) of Pompe patients after infusion of alglucosidase alfa (Myozyme/Lumizyme); conditions: for increase in muscle rhGAA activity relative to rhGAA alone, individual patients: Day 7 biopsies
# Text: On Day 7, subjects will have the following assessments performed: adverse event assessment, concomitant medications, physical exam, vital signs, clinical laboratory tests (including creatine kinase, LDH (LDH-5), alkaline phosphatase, AST, ALT), Hex4 and muscle strength tests. A muscle biopsy will be collected from which GAA enzyme activity will be determined. A blood sample for plasma and WBC GAA enzyme level determinations will also be collected.
# A muscle biopsy will also be collected from which GAA enzyme activity and 1-deoxynojirimycin hydrochloride levels will be determined, on Day 3.
# GAA enzyme activity will be examined in muscle biopsy samples. One piece of muscle tissue will be removed as described in Table 1. GAA activity in muscle will be determined by a validated assay measuring enzyme activity using 4-MUG, with and without Con A. GAA protein levels will be measured by Western blotting using anti-human GAA antibody. 1-deoxynojirimycin hydrochloride concentrations in muscle samples collected in Period 2 will be determined using a validated LC-MS/MS assay.
# Another objective of the study was to assess the effects of various doses of 1-deoxynojirimycin hydrochloride on the GAA activity. This was evaluated by measuring the GAA enzyme activity and protein levels in skeletal muscle at Day 3 and/or Day 7 following a single intravenous infusion with alglucosidase alfa alone and after pre-administration of single ascending oral doses of 1-deoxynojirimycin hydrochloride.
# The study enrolled male and female patients who had been on a stable dose and regimen of ERT for at least three months. All patients were given a regularly scheduled ERT infusion. One hour prior to the initiation of the next ERT infusion, patients received a single oral dose of AT2220. Plasma rhGAA activity and protein levels were evaluated during each infusion. Each patient underwent muscle biopsies three or seven days after each infusion to measure tissue GAA enzyme activity with and without the chaperone, as well as to measure the level of AT2220 in the muscle.
# [3] = molecular target: T1, GAA; assay: Stability of rhGAA activity in human blood; assay type: in vitro ADME; parameters: purchased Genzyme Corporation; conditions: presence of 1-deoxynojirimycin hydrochloride; 24 hour period
# Text: 1-deoxynojirimycin hydrochloride stabilizes rhGAA in vitro and in vivo.
# [4] = Safety assessment in Pompe patients (adverse events, urine Hex4, CPK, ALT/AST, muscle strength); assay type: in vivo, human; conditions: for Adverse event: Intensity / Adverse event: Relation to Study Drug? / Adverse event: Was Event Serious?: per adverse event
# Text: Dose escalation to the next dose level of 1-deoxynojirimycin hydrochloride may proceed following review of safety and tolerability data from the previous dose level group(s). Safety data reviewed will include adverse events (including infusion reactions), clinical laboratory tests (including creatine kinase, LDH (LDH-5), alkaline phosphatase, AST, ALT), Hex4, 12-Lead ECGs, physical examinations, muscle strength tests and vital signs.
# Safety parameters will be assessed by review of changes in physical exam findings, vital signs, ECG changes over time, clinical labs, Hex4 and adverse events.
# Blood samples for clinical laboratory tests (hematology, serum chemistry) and urinalyses will be collected according to the schedule in Table 1. • Hematology tests include total hemoglobin, hematocrit, erythrocyte, platelet and leukocyte counts with differential. • Coagulation (screening only) includes INR and aPTT. • Serum chemistry includes measurement of AST, ALT, alkaline phosphatase, total bilirubin, creatinine, creatine kinase, urea, glucose, calcium, sodium, potassium, magnesium, total protein, albumin, bicarbonate, LDH (LDH-5), blood urea nitrogen, chloride, and phosphate. • Urinalysis includes color, appearance, specific gravity, pH, protein, glucose, ketones, blood, leukocyte esterase, nitrite, bilirubin, urobilinogen and microscopy of sediment
# Muscular strength tests, assessed by hand held dynamometer, will be conducted at Screening, Days −1 and 7 of each period and at Follow-up. Proximal and distal muscle groups will be evaluated.
structure (smiles),measurement,setting,value
"OC[C@H]1NC[C@H](O)[C@@H](O)[C@@H]1O [AT2220, (2R,3R,4R,5S)-2-hydroxymethyl-piperidine-3,4,5-triol]",total plasma rhGAA protein by Western blot,[1],dose-related increases
same,change in GAA enzyme activity in muscle,"[2]; Cohort 1 (50 mg), day 7",no consistent change
same,"increase in muscle rhGAA activity relative to rhGAA alone, individual patients","[2]; Cohort 1, 50 mg AT2220",no change
same,"increase in muscle rhGAA activity relative to rhGAA alone, individual patients","[2]; Cohort 2, 100 mg AT2220",no change
same,GAA enzyme uptake into muscle tissue vs ERT alone,"[2]; Cohorts 2, 3 and 4 (100, 250, 600 mg)",more enzyme is taken up into muscle tissue
same,loss of rhGAA enzymatic activity in human blood,[3],no measurable loss in enzymatic activity
same,Adverse event: Intensity,[4]; Cohort 1 (50 mg 1-DNJ-HCl),Mild
same,Adverse event: Relation to Study Drug?,[4]; Cohort 1 (50 mg 1-DNJ-HCl),Unrelated
same,Adverse event: Was Event Serious?,[4]; Cohort 1 (50 mg 1-DNJ-HCl),No
same,ALT/AST,"[4]; Cohort 1 (50 mg), 4 subjects",No drug related elevations
same,CPK,"[4]; Cohort 1 (50 mg), 4 subjects",no drug related elevations beyond subjects' baseline values range
same,Muscle strength,"[4]; Cohort 1 (50 mg), 4 subjects",No change between Periods 1 and 2
same,SAE / drug-related AEs,"[4]; Cohort 1 (50 mg), 4 subjects",No SAE or drug-related AEs
same,Urine Hex4,"[4]; Cohort 1 (50 mg), 4 subjects",no drug related elevations
same,Adverse event: Intensity,[4]; Cohort 2 (100 mg 1-DNJ-HCl),Mild
same,Adverse event: Relation to Study Drug?,[4]; Cohort 2 (100 mg 1-DNJ-HCl),Unrelated
same,Adverse event: Was Event Serious?,[4]; Cohort 2 (100 mg 1-DNJ-HCl),No
same,ALT/AST,"[4]; Cohort 2 (100 mg), 5 subjects",No drug related elevations
same,CPK,"[4]; Cohort 2 (100 mg), 5 subjects",no drug related elevations beyond subjects' baseline range
same,Hex4,"[4]; Cohort 2 (100 mg), 5 subjects",no drug related elevations
same,Muscle strength,"[4]; Cohort 2 (100 mg), 5 subjects",No change between Periods 1 and 2
same,SAE / drug-related AEs,"[4]; Cohort 2 (100 mg), 5 subjects",No SAE or drug-related AEs
same,Adverse Event,"[4]; Cohort 2 (rhGAA alone, then rhGAA + 100 mg 1-DNJ-HCl), per patient",None
same,CPK levels,[4]; Cohorts 1 and 2,did not appreciably change from baseline
same,relation of reported adverse events to drug,"[4]; Cohorts 1 and 2, only mild, transient adverse events reported",none of which were related to AT2220
same,urine hex 4 levels,"[4]; following a single dose of AT2220, Cohorts 1 and 2","either did not change from baseline, or did not show any consistent trend"
same,tolerability,"[4]; single doses co-administered with ERT, Cohorts 1-4 (50-600 mg)","well-tolerated, with no drug-related adverse events reported"
same,safety and tolerability,"[4]; single doses of 50 mg and 100 mg, patients with Pompe Disease",safe and well-tolerated
